Columns and labels:
[1] = tested on: atopic dermatitis-induced flaky tail mice; experiment: Treatment effect in HDM-induced atopic dermatitis mouse model (clinical photograph, dermatitis score); type: in vivo; details: 50 μM or 100 μM, 200 μL on back, 4 weeks
Protocol: The backs of the mice were shaved and exfoliated with a 4% diluted sodium dodecyl sulfate solution (SIGMA Lot #BCCD5615) once every 3 days to remove dead skin cells, and House Dust Mite (HDM), a typical trigger/exacerbator of atopic dermatitis, was topically applied to the mice to induce atopic skin lesions. The house dust mite ointment used was Atopic dermatitis challenging ointment from Biostir (Osaka, Japan), and atopic dermatitis-induced mice were prepared as described above (see FIG. 1).
In order to determine whether the bentamapimod drug discovered above has a therapeutic effect on atopic dermatitis, experiments were conducted using the mouse model prepared in the preliminary example and divided into control and experimental groups according to the timeline diagram shown in FIG. 4. […] To further verify the treatment effect, the flaky tail Mice dermatitis score of the atopic dermatitis mouse model according to the drug treatment was calculated by Wilcoxon-signed rank test and shown in FIG. 6. […]

[2] = tested on: T cells in skin-draining lymph nodes; experiment: FACS of T cell fractions in skin-draining lymph nodes of atopic dermatitis mouse model; type: in vivo
Protocol: (§1) To test the effect of the newly discovered bentamapimod drugs on skin-specific T cells, flaky tail mice were induced with atopic skin lesions using HDM three times a week until week 4 of the experiment as described in the Preparations and Examples above, and then treated with each drug at different concentrations for another 4 weeks. To determine changes in skin-specific T cells in each animal, single suspensions were then prepared from spleen, skin, and lymph nodes, and T cells were stained with anti-CD3, anti-CD4, anti-CD8, and anti-CD45 antibodies. Flow cytometric analysis of skin-specific T cells was performed using anti-CD69 and anti-CD103 antibodies to observe changes in the number and distribution of skin-specific T cells in response to drug application.

normal skin tissue = experiment: Cell viability (CCK-8) cytotoxicity on normal skin tissue cells; type: cell-based; details: overnight
Protocol: We sought to determine the optimal concentration of the drug Bentamapimod identified above that would not affect the cytotoxicity of the drug. To determine the final concentration of the drug, normal skin tissue was seeded as cells in […] 96-well plates using 5% (v/v) RPMI1640 medium (LONZA) and 1% penicillin/streptomycin medium and treated with bentamapimod at concentrations of 1 μM, 10 μM, 50 μM, 100 μM, and 200 μM, respectively, and incubated overnight in a 37° C. incubator. Then, 10 μl of Cell Counting Kit-8 drug (Dojindo Lot. PR863) was seeded into 96-well plates and the absorbance was measured at […] after 2 h.

skin-specific T cells [3] = experiment: Flow cytometry of T cell fractions in skin of atopic dermatitis mouse model; type: in vivo; details: 4 weeks
Protocol: as §1

flaky tail mice = experiment: Chronic itch behavior before and after application of test drug; type: in vivo, mouse; details: drug 3 times a week for 4 weeks after 4 weeks HDM; before vs after application
Protocol: Additional experiments were performed to compare the ITCH behavior before and after application of the dexamethasone, tacrolimus, and bentamapimod agents disclosed above. Specifically, atopic dermatitis was induced by applying 100 mg of HDM ointment to the backs of flaky tail mice for 4 weeks, after which drug treatments were applied 3 times a week for 4 weeks, and the chronic itch behavior before and after application of these test drugs was quantified and graphed (see FIG. 9a and FIG. 9b).

skin-specific T cells [4] = experiment: Flow cytometry of skin T cells from atopic dermatitis patient skin after drug application; type: cell-based, human; details: immune cell fractions from skin tissue of atopic dermatitis patients
Protocol: To test the effect of the candidate drug on skin-specific T cells in human skin tissue, a single suspension was prepared using skin from a patient with atopic dermatitis. T cells were stained using anti-CD3, anti-CD4, anti-CD8, and anti-CD45 antibodies, and flow cytometry was performed on skin T cells using the skin TRM markers CD69 and CD103 to observe changes in the number and distribution of skin-specific T cells in response to drug application.

[5] = tested on: atopic dermatitis-induced flaky tail mice; experiment: Acute wiping (pain) and scratching (itching) behavior after drug application; type: in vivo, mouse
Text: The existing drug dexamethasone is widely used as a treatment for atopic dermatitis, but long-term use causes various local side effects such as skin atrophy, dilated skin capillaries, and hypopigmented spots. Tacrolimus, which was developed to minimize these long-term local side effects, solved the problem of long-term and permanent local side effects of steroid drugs, but short-term skin irritation symptoms are emerging as a new problem, as it is known that about 50% of patients experience burning and skin rash at the beginning of application. Therefore, it is necessary to overcome the skin irritation side effects, and we wanted to check whether the newly discovered drug of bentamapimod can resolve the above side effects while maintaining the effectiveness of the animal drug through behavioral analysis of pain and itching using Flaky Tail mice. Wiping the face with the forelegs was interpreted as a behavioral measure of pain in mice, and scratching with the hind legs was interpreted as a behavioral measure of itching (J Vis Exp. 2019 Sep. 27; (151)). […] Flaky tail mice were treated with 200 μL of the test agent per group for one week to facilitate comparison, and the number of itches and pain behaviors were quantified and graphed (see FIG. 8a and FIG. 8b).

[6] = at the beginning of application; cited from earlier work

**Q.** With `N#CC(c1ccnc(OCc2ccc(CN3CCOCC3)cc2)n1)c1nc2ccccc2s1` (stereo not drawn) [bentamapimod, α-[2-[[4-(4-morpholinylmethyl)phenyl]methoxy]-4-pyrimidinyl]-2-benzothiazoleacetonitrile] as the compound, how does the “atopic dermatitis scores (Flaky tail Mice dermatitis score)” value ([1]; FIG. 6) read?
**A.** Its value is “equivalent to or better than those of conventional drugs”.

**Q.** What about the “treatment effect on atopic dermatitis skin lesions (wounding, dryness, desquamation, erythema, hemorrhage, edema)” value ([1]; compared to conventional drugs, FIG. 5) of the same compound?
**A.** Its value is “clinically significant treatment effect”.

**Q.** And the “CD3+ T cells in skin-draining lymph nodes” value ([2]; 100 μM)?
**A.** Its value is “statistically significantly lower”.

**Q.** And the “CD3+ CD4+ CD69+ CD103+ T cells” value ([2]; 100 μM, skin-draining lymph nodes)?
**A.** Its value is “statistically significantly lower”.

**Q.** And the “fraction of T cells expressing CD69 among CD3+ CD4+ T cells” value ([2]; skin-draining lymph nodes)?
**A.** The value was “reduced”.

**Q.** What about the “percentage of T cells compared to the 0.1% dexamethasone group” value ([2]; skin-draining lymph nodes) of the same compound?
**A.** Its value is “significantly reduced”.

**Q.** What about the cell viability (normal skin tissue; 50 μM) of the same compound?
**A.** The cell viability was “greater than 90%”.

**Q.** What about the cell viability (normal skin tissue; 100 μM) of the same compound?
**A.** Its cell viability is “greater than 90%”.

**Q.** What about the “percentage of CD3+, CD4+ T cells in the skin” value (skin-specific T cells [3]; 50 μM) of the same compound?
**A.** The value was “significantly reduced in a dose-dependent manner”.

**Q.** And the “percentage of CD3+, CD4+ T cells in the skin” value (skin-specific T cells [3]; 100 μM)?
**A.** Its value is “significantly reduced in a dose-dependent manner”.

**Q.** What about the “percentage of CD69+ T cells and CD103+ T cells (skin-resident T cells)” value (skin-specific T cells [3]; skin) of the same compound?
**A.** Its value is “significantly reduced”.

**Q.** And the “percentage of skin-specific T cells compared to the control 0.1% dexamethasone group” value (skin-specific T cells [3]; skin)?
**A.** The value was “significantly reduced”.

**Q.** And the “chronic scratching behavior, treatment effect” value (flaky tail mice)?
**A.** Its value is “treatment effect was particularly significant”.

**Q.** What about the “percentage of skin-specific T cells” value (skin-specific T cells [4]; 50 μM) of the same compound?
**A.** The value was “significant dose-dependent decrease”.

**Q.** What about the “percentage of skin-specific T cells” value (skin-specific T cells [4]; 100 μM) of the same compound?
**A.** The value was “significant dose-dependent decrease”.

**Q.** What about the “local irritation symptoms such as itching and pain” value ([5]; 50 μM and 100 μM) of the same compound?
**A.** Its value is “did not cause local irritation symptoms”.

**Q.** And the “number of scratching and wiping behaviors versus control D.W group” value ([5]; 50 μM, 200 μL on back)?
**A.** Its value is “no difference”.

**Q.** And the “number of scratching and wiping behaviors versus control D.W group” value ([5]; 100 μM, 200 μL on back)?
**A.** Its value is “no difference”.

**Q.** What does the source list for `C=CC[C@@H]1/C=C(\C)C[C@H](C)C[C@H](OC)[C@H]2O[C@@](O)(C(=O)C(=O)N3CCCC[C@H]3C(=O)O[C@H](/C(C)=C/[C@@H]3CC[C@@H](O)[C@H](OC)C3)[C@H](C)[C@@H](O)CC1=O)[C@H](C)C[C@@H]2OC` [tacrolimus]?
**A.** time at which wiping behaviors peaked ([5]; 0.1% concentration, 200 μL on back): 30 min; number of scratching behaviors ([5]; 0.1% concentration, 200 μL on back, in 30 minutes): 17 times; patients who experience burning and skin rash [6]: about 50%

From patent US20250319094A1, “COMPOSITION FOR PREVENTING OR TREATING ATOPIC DERMATITIS” (Yonsei University BioHealth Technology Holdings, Inc., priority 2022, published 2025)
